ChEMBL document CHEMBL4265945, “Synthesis, biological evaluation and structure-activity relationship of a novel class of PI3Kα H1047R mutant inhibitors” (Eur J Med Chem, 2018)
Calls of active or inactive are those of the source. The rule behind the calls is not given here.

Experiments:
[1] = molecular target: Phosphatidylinositol 4,5-bisphosphate 3-kinase catalytic subunit alpha isoform (Homo sapiens, UniProt P42336, H1047R); test: Inhibition of PI3Kalpha H1047R mutant (unknown origin) by HTRF assay
HCT-116 [2] = settings: Homo sapiens, HCT-116, 72 h
MCF7 = test: cells; settings: Homo sapiens, MCF7, 72 h
Description: Antiproliferative activity against human MCF7 cells after 72 hrs by CCK-8 assay

[3] = molecular target: Phosphatidylinositol 4,5-bisphosphate 3-kinase catalytic subunit alpha isoform (Homo sapiens, UniProt P42336); test: Inhibition of wild type PI3Kalpha (unknown origin) after 40 mins by kinase-Glo reagent based luminescence assay
[4] = Inhibition of mTORC1 (unknown origin) after 40 mins by kinase-Glo reagent based luminescence assay; design: species or system Homo sapiens
HCT-116 [5] = test: Induction of apoptosis in human HCT116 cells assessed as early apoptotic cells at 5 uM after 24 hrs by Annexin V-FITC/PI staining based flow cytometry (reference value: 4.07%); assay type: functional
HCT-116 [6] = test: Induction of apoptosis in human HCT116 cells assessed as late apoptotic cells at 5 uM after 24 hrs by Annexin V-FITC/PI staining based flow cytometry (reference value: 2.35%); assay type: functional
HCT-116 [7] = test: Induction of apoptosis in human HCT116 cells assessed as viable cells at 5 uM after 24 hrs by Annexin V-FITC/PI staining based flow cytometry (reference value: 93%); assay type: functional; settings: HCT-116, 24 h, read-out: Activity
HCT-116 [8] = test: Induction of apoptosis in human HCT116 cells assessed as necrotic cells at 5 uM after 24 hrs by Annexin V-FITC/PI staining based flow cytometry (reference value: 0.39%); assay type: functional
HCT-116 [9] = test: Induction of autophagy in human HCT116 cells assessed as autophagic vacuole formation at 5 uM after 6 hrs by MDC staining based fluorescence microscopic analysis; assay type: functional, cell-based
HCT-116 [10] = test: Induction of autophagy in human HCT116 cells assessed as accumulation of GFP/mRFP-tagged LC3 accumulation in cytoplasm after 12 hrs by laser scanning confocal microscopic analysis; assay type: functional, cell-based
[11] = molecular target: Phosphatidylinositol 4,5-bisphosphate 3-kinase catalytic subunit beta isoform (Homo sapiens, UniProt P42338); test: Inhibition of PI3Kbeta (unknown origin) after 40 mins by kinase-Glo reagent based luminescence assay
[12] = molecular target: Phosphatidylinositol 4,5-bisphosphate 3-kinase catalytic subunit gamma isoform (Homo sapiens, UniProt P48736); test: Inhibition of PI3Kgamma (unknown origin) after 40 mins by kinase-Glo reagent based luminescence assay
[13] = molecular target: T1, Phosphatidylinositol 4,5-bisphosphate 3-kinase catalytic subunit delta isoform (Homo sapiens, UniProt O00329); test: Inhibition of PI3Kdelta (unknown origin) after 40 mins by kinase-Glo reagent based luminescence assay
T1 sequence (O00329 whole entry): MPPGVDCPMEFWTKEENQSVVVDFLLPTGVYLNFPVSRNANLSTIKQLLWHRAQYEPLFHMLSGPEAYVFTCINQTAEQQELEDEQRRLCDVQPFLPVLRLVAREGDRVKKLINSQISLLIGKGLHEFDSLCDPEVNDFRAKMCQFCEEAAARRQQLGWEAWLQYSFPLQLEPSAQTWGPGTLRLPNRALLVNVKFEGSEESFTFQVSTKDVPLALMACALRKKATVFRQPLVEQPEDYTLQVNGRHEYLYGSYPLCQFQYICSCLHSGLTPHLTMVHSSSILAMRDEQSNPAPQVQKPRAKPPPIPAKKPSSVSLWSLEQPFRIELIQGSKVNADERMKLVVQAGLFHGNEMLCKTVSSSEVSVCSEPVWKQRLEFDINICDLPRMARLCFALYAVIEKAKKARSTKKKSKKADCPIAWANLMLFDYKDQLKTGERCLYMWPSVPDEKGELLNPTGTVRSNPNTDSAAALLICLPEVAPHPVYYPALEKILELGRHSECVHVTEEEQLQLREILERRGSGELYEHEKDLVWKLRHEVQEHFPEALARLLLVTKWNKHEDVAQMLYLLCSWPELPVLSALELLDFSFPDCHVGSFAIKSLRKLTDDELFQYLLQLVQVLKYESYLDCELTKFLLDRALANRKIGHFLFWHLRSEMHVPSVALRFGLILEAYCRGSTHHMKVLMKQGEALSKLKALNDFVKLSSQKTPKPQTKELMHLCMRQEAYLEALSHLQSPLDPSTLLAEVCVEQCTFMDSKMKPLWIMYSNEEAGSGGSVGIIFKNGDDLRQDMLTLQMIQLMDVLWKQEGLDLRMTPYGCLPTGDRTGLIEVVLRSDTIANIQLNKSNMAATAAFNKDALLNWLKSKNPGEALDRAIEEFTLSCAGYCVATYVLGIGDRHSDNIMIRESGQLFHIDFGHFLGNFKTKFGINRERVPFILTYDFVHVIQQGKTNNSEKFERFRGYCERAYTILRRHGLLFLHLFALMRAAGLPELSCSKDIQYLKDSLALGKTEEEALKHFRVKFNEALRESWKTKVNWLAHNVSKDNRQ

Phosphatidylinositol 4,5-bisphosphate 3-kinase catalytic subunit alpha isoform (Homo sapiens, UniProt P42336, H1047R), sequence (P42336 whole entry H1047R, canonical isoform): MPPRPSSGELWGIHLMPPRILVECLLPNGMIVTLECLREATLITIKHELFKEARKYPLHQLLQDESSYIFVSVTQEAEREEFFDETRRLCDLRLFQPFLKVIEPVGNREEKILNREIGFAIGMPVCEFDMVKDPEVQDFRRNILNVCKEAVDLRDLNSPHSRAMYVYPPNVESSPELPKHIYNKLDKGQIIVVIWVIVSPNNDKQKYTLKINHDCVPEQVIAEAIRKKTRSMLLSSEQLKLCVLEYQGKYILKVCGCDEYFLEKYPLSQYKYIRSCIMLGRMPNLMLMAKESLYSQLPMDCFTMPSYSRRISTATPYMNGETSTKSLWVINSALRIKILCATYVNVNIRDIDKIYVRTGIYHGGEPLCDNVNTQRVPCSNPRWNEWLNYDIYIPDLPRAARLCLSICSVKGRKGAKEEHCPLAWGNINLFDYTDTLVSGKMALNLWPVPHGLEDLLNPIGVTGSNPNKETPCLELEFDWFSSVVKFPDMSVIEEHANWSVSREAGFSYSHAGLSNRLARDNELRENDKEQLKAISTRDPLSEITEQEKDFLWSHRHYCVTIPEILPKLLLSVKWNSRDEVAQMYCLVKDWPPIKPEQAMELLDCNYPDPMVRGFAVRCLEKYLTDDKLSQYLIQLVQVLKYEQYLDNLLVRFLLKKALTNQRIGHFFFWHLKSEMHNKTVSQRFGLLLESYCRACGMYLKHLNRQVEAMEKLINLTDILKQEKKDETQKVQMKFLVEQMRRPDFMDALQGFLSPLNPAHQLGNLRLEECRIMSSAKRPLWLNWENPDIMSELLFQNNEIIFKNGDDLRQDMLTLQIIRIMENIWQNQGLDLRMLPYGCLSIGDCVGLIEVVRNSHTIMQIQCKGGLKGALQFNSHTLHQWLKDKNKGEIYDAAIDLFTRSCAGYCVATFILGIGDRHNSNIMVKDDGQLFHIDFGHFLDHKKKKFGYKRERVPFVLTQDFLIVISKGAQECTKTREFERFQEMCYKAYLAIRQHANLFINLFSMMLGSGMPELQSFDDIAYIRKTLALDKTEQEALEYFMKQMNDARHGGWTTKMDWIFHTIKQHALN
Phosphatidylinositol 4,5-bisphosphate 3-kinase catalytic subunit alpha isoform (Homo sapiens, UniProt P42336), sequence (P42336 whole entry, canonical isoform): as the sequence (P42336 whole entry H1047R, canonical isoform) above, with R1047H counted along it
Phosphatidylinositol 4,5-bisphosphate 3-kinase catalytic subunit beta isoform, sequence (P42338 whole entry, canonical isoform): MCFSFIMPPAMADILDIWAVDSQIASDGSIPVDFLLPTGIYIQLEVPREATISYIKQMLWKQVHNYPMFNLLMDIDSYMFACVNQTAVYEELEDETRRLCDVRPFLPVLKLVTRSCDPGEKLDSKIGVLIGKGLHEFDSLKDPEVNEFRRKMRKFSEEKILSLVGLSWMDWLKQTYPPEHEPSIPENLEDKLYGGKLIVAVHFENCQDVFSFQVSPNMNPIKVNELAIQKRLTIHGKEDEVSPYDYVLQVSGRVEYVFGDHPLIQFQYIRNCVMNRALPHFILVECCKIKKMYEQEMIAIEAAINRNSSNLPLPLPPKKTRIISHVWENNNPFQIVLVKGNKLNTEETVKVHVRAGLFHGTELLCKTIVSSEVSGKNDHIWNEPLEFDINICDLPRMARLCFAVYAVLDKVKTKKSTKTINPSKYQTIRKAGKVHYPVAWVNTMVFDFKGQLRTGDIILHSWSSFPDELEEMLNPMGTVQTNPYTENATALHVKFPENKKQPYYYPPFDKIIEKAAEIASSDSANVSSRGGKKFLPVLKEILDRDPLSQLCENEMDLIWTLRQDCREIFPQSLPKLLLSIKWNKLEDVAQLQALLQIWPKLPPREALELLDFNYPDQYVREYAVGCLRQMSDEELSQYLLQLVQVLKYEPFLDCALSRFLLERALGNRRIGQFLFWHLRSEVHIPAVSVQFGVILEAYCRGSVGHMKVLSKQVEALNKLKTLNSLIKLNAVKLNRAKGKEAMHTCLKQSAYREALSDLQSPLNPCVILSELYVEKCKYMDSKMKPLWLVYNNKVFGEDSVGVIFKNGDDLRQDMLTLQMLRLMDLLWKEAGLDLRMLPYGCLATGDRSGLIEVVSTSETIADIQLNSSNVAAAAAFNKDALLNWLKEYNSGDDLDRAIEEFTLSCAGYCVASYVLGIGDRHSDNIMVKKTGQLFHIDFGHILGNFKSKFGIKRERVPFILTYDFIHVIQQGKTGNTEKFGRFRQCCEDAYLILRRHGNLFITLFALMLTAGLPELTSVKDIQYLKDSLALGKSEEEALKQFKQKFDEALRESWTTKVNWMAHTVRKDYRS
Phosphatidylinositol 4,5-bisphosphate 3-kinase catalytic subunit gamma isoform, sequence (P48736 whole entry, canonical isoform): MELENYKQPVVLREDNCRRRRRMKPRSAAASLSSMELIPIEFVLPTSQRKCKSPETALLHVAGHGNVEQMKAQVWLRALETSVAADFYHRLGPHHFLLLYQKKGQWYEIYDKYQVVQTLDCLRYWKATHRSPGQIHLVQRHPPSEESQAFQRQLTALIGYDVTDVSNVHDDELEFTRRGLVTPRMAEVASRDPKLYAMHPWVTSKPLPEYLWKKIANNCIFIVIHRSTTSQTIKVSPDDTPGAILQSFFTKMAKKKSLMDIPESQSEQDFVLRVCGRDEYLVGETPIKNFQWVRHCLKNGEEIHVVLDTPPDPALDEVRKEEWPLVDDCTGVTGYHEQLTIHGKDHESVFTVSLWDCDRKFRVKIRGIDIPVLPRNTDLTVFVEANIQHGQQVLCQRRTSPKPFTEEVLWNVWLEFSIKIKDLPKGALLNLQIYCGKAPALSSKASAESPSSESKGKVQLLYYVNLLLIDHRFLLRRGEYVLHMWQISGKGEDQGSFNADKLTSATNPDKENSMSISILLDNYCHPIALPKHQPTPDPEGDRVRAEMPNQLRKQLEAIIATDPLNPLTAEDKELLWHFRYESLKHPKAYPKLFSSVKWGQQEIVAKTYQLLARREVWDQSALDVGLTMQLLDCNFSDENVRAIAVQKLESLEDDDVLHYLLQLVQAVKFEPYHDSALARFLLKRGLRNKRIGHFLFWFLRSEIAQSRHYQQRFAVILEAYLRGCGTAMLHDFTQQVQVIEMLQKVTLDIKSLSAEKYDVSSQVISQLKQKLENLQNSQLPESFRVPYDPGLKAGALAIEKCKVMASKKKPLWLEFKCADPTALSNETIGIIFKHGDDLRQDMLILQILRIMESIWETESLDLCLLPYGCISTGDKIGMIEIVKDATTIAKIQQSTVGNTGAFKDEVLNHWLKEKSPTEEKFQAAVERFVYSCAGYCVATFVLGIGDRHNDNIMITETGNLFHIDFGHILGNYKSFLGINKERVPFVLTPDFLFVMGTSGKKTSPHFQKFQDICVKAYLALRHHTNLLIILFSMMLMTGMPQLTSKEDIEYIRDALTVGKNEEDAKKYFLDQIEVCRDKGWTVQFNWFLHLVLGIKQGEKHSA

| SMILES | EC50 [1] [µM] | IC50 (HCT-116 [2]) [µM] | IC50 (MCF7) [µM] | further results |
| --- | --- | --- | --- | --- |
| COc1ccc(CC(=O)c2ccc(O)c(O)c2O)cc1OC | 242 | > 50 | > 50 |  |
| O=C(Cc1ccc(C(F)(F)F)cc1)c1ccc(O)c(O)c1O | 58.4 | > 50 | > 50 |  |
| O=C(Cc1ccc(Cl)cc1)c1c(O)cc(O)cc1O | 115 | > 50 | > 50 | EC50 [3]: 79.3 µM |
| O=C(Cc1ccccc1F)c1ccc(O)c(O)c1O | > 500 | > 50 | > 50 |  |
| O=C(Cc1ccc(F)cc1)c1ccc(O)c(O)c1O | 170 | > 50 | > 50 |  |
| Cn1c(=O)n(-c2ccc(C(C)(C)C#N)cc2)c2c3cc(-c4cnc5ccccc5c4)ccc3ncc21 [DACTOLISIB] |  |  |  | EC50 [4]: 0.079 µM |
| FC(F)c1nc2ccccc2n1-c1nc(N2CCOCC2)nc(N2CCOCC2)n1 [ZSTK-474] |  | 1.31 | 5.27 | Activity (HCT-116 [5]): 5.6%; Activity (HCT-116 [6]): 1.29%; viability at 5 µM (HCT-116 [7]): 92%; Activity (HCT-116 [8]): 0.2%; Activity (HCT-116 [9]): Active; Activity (HCT-116 [10]): Dose-dependent effect |
| O=C(Cc1ccc(Cl)cc1)c1cccc(O)c1O | > 500 | > 50 | > 50 |  |
| O=C(Cc1ccc(Cl)c(Cl)c1)c1ccc(O)c(O)c1O | 8.9 | 35.5 | 48.9 |  |
| O=C(Cc1ccc(F)c(Cl)c1)c1ccc(O)c(O)c1O | 9.7 | 47.3 | > 50 |  |
| O=C(Cc1cccc(Cl)c1)c1ccc(O)c(O)c1O | 98.2 | > 50 | > 50 |  |
| Oc1ccc(-c2n[nH]cc2-c2ccc(Cl)c(Cl)c2)c(O)c1O |  |  |  | EC50 [11]: 5.7 µM; EC50 [12]: 10 µM; EC50 [13]: 19.1 µM |
| O=C(Cc1ccc(Cl)cc1)c1ccc(O)c(O)c1O | 69.3 | > 50 | > 50 | EC50 [3]: 35.2 µM |
| O=C(Cc1ccc(Cl)cc1)c1ccc(O)cc1O | 196 | > 50 | > 50 |  |
| O=C(Cc1ccccc1Cl)c1ccc(O)c(O)c1O | > 500 | > 50 | > 50 |  |
